Laboratory results published in patent US10016424B2, “Method and pharmaceutical composition for use in the treatment of epilepsy” (INSERM (Institut National de la Sante et de la Recherche …, priority 2013, dated 2018).

Experiments:
KARs = biological target: T1, KARs (Mus musculus, UniProt P39087+Q61626); format: cell-based; settings: WT cultured slices; SYM2081 10 μM, UBP310 5 μM; Sr2+ conditions, 5 μM gabazine, 40 μM D-APV
T1 construct: from tissue; host or cells: dentate granule cells in pilocarpine-treated organotypic hippocampal/entorhinal slice cultures from WT mice (FVB/N)
T1 sequence (P39087 32-908): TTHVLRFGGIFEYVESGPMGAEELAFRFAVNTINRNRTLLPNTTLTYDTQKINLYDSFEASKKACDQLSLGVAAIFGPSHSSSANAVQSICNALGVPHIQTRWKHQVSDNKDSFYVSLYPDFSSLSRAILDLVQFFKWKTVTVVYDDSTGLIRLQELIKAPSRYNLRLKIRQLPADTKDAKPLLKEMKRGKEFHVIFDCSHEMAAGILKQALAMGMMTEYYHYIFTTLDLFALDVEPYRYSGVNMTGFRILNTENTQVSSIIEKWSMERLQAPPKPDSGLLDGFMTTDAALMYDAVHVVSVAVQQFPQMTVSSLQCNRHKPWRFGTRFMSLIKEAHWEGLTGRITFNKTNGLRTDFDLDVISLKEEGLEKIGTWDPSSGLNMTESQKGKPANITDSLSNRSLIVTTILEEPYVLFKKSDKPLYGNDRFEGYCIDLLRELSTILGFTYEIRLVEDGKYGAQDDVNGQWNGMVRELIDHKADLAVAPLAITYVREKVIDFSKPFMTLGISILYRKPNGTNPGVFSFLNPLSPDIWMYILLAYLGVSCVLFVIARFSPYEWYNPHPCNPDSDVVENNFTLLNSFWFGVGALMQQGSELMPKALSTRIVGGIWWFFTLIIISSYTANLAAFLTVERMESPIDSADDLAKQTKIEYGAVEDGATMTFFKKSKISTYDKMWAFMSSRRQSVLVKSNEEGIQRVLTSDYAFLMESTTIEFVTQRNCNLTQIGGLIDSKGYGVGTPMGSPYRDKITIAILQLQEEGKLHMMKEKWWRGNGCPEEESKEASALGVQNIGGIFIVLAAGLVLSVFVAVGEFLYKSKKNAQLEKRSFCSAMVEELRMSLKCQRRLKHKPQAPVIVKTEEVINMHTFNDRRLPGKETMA
T1 sequence (Q61626 15-979): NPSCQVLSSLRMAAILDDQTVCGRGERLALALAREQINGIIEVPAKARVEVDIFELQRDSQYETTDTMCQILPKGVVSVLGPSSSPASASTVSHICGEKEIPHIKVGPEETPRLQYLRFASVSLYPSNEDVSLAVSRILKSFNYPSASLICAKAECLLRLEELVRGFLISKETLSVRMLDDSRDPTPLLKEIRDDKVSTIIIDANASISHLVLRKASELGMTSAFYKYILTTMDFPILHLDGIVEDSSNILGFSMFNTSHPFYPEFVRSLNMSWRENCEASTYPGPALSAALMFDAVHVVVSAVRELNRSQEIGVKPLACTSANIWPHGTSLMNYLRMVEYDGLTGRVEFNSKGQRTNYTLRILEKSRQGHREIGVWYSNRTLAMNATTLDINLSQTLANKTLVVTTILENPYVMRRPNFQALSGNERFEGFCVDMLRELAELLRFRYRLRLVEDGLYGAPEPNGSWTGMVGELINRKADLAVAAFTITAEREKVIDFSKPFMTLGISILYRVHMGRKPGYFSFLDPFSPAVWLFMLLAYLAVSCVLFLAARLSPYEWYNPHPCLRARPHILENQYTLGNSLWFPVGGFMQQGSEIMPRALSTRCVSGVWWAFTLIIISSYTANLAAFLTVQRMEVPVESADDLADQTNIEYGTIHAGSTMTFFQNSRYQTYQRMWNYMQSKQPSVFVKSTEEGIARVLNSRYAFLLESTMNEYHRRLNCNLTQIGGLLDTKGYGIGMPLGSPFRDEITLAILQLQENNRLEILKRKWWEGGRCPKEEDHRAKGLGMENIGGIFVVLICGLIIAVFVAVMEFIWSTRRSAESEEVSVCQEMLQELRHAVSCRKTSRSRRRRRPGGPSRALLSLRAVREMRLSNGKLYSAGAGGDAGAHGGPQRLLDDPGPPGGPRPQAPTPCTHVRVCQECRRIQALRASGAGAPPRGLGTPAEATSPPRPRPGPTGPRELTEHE
Procedure: Hippocampal/entorhinal cortex slices (350 μm) were prepared from pre-genotyped GluK2−/− and WT mice (P9-10, FVB/N background) using a McIlwain tissue chopper. Slices were placed on mesh inserts (Millipore # PICMORG50) inside culture dishes containing 1 ml of the following medium: MEM 50%, HS 25%, HBSS 25%, HEPES 15 mM glucose 6.5 mg/ml and insulin 0.1 mg/ml. Culture medium was changed every 2-3 days and slices maintained in an incubator at 37° C./5% CO2. Pilocarpine (0.5 μM) was added to the medium at 5 D.I.V and removed at 7 D.I.V; slices were utilized for experiments from 9 D.I.V.
Cultured or acute slices were individually transferred to a recording chamber maintained at 30-32° C. and continuously perfused (2 ml/min) with oxygenated normal or adapted ACSF containing 5 μM gabazine. Local field potentials were made in the granule cell layer of the DG with glass electrodes (2-3 MΩ; filled with normal ACSF) using a DAM-80 amplifier (low filter, 1 Hz; […], 3 KHz; World Precision Instruments, Sarasota, Fla.). For evoked synaptic transmission, electrical stimulation was performed with a bipolar NiCh electrode (#762000, AM systems). […] Signals were analyzed off-line using Clampfit 9.2 (PClamp) and MiniAnalysis 6.0.1 (Synaptosoft, Decatur, Ga.). In organotypic slices, spontaneous EPSCs were recorded at the reversal potential for GABAergic currents (Vh=−70 mV). To characterize the nature and kinetic properties of fast and slow events, miniature EPSCs (mEPSCs) evoked in Sr2+ conditions (external Ca2+ was substituted with 1.2 mM Sr2+) were recorded in DGCs from GluK2−/− and WT slices. Electrical stimulation was made in the molecular layer in the continued presence of 5 μM gabazine and 40 μM D-APV; asynchronous mEPSCs were measured during the 300 ms period after the stimulus artifact. […] Filtered traces were also analyzed by Fourier analysis (Hamming) using Clampfit 9.2. In acute hippocampal slices, intensity of antidromically-evoked bursts was quantified using coastline index (Epsztein et al., 2005).

[1] = tested on: bursts driven by recurrent mossy fibers in DG; assay: Antidromically evoked bursts (coastline burst index) in dentate gyrus of acute slices from pilocarpine-treated mice; format: cell-based, mouse; settings: WT mice; bath application
Procedure: All experiments were approved by the Institut National de la Santé et de la Recherche Médicale animal care and use committee of May 29, 2001 (2001-464) and the European community council directive of Nov. 24, 1986 (86/609/EEC). Mice (FVB/N background) had access to food and water ad libitum and were housed under a 12 h light/dark cycle at 22-24° C. Male GluK2−/− and WT mice (P60-80) were given scopolamine (1 mg/kg) subcutaneously (s.c.) 15 minutes prior to s.c. administration of pilocarpine (200-600 mg/kg). A ramp protocol was used whereby animals were given an initial dose of 200 mg/kg followed by half-doses every 30 minutes until seizures appeared. […] Diazepam (10 mg/kg) was administered 45 minutes after onset of SE. […]
Cultured or acute slices were individually transferred to a recording chamber maintained at 30-32° C. and continuously perfused (2 ml/min) with oxygenated normal or adapted ACSF containing 5 μM gabazine. […] Signals were analyzed off-line using Clampfit 9.2 (PClamp) and MiniAnalysis 6.0.1 (Synaptosoft, Decatur, Ga.). In organotypic slices, spontaneous EPSCs were recorded at the reversal potential for GABAergic currents (Vh=−70 mV). To characterize the nature and kinetic properties of fast and slow events, miniature EPSCs (mEPSCs) evoked in Sr2+ conditions (external Ca2+ was substituted with 1.2 mM Sr2+) were recorded in DGCs from GluK2−/− and WT slices. […]

[2] = biological target: homomeric GluK2 receptors (Homo sapiens, UniProt Q13002); settings: cited from earlier work
Sequence of homomeric GluK2 receptors (Q13002 32-908): as the sequence (P39087 32-908) above, with S377A, V463A counted along it

Cc1cn(C[C@H](N)C(=O)O)c(=O)n(Cc2ccsc2C(=O)O)c1=O [UBP310]
effect on KAR-mediated mEPSCs (KARs): abolished | reduction of evoked bursts (coastline burst index) [1]: 55% | inhibition of homomeric GluK2 receptors [2]: not homomeric GluK2 receptors
